Measurements published in patent EP0221541A2, “Quinolonecarboxylic acid derivatives and their preparation” (KYORIN PHARMACEUTICAL CO., LTD., priority 1985, dated 1987).
≈ marks a conversion by molar mass, not a printed value. Where a name gives a salt, the structure may show the parent alone. Read-outs that look alike come from different tables or passages of the source.

Key:
Format in all cases: cell-based
[1] = test system: C. perfringens KYA 13123; assay: microbe, parasite or virus in culture; settings: Clostridium perfringens, KYA13123
[2] = test system: S. marcescens GN 7577; assay: MIC, antibacterial spectrum (aerobic bacteria); settings: Serratia marcescens, GN7577; S. marcescens GN 7577, Gram -, 10^6 cells/ml, aerobic; read-out: MIC
[3] = test system: Peptostreptococcus anaerobius KYA 27337; assay: MIC, antibacterial spectrum (anaerobic bacteria); settings: KYA27337; Peptostreptococcus anaerobius KYA 27337, Gram +, 10^6 cells/ml, anaerobic; read-out: MIC
[4] = test system: P. cepacia KY 84; assay: MIC, antibacterial spectrum (aerobic bacteria); settings: Burkholderia cepacia, KY84, P. cepacia KY 84, Gram -, 10^6 cells/ml
[5] = test system: S. aureus Smith; assay: MIC, antibacterial spectrum (aerobic bacteria); settings: Staphylococcus aureus; S. aureus Smith, Gram +, 10^6 cells/ml, aerobic; read-out: MIC
[6] = test system: Bacteroides fragilis GM 7000; assay: MIC, antibacterial spectrum (anaerobic bacteria); settings: GM7000; Bacteroides fragilis GM 7000, Gram -, 10^6 cells/ml, anaerobic; read-out: MIC
[7] = test system: Streptococcus pneumoniae IID 552; assay: MIC, antibacterial spectrum (aerobic bacteria); settings: IID552; Streptococcus pneumoniae IID 552, Gram +, 10^6 cells/ml, aerobic; read-out: MIC
[8] = test system: C. ramosum; assay: MIC, antibacterial spectrum (anaerobic bacteria); settings: Thomasclavelia ramosa; C. ramosum, Gram +, 10^6 cells/ml, anaerobic; read-out: MIC
[9] = test system: Fusobacterium necrophorum S-45; assay: MIC, antibacterial spectrum (anaerobic bacteria); settings: S45; Fusobacterium necrophorum S-45, Gram -, 10^6 cells/ml, anaerobic; read-out: MIC
[10] = test system: Acinetobacter anitratus IID 876; assay: MIC, antibacterial spectrum (aerobic bacteria); settings: Acinetobacter calcoaceticus, IID876; Acinetobacter anitratus IID 876, Gram -, 10^6 cells/ml, aerobic; read-out: MIC
[11] = test system: F. varium KYA 8501; assay: MIC, antibacterial spectrum (anaerobic bacteria); settings: Fusobacterium varium, KYA8501, F. varium KYA 8501, Gram -, 10^6 cells/ml
[12] = test system: Serratia marcescens IID 618; assay: MIC, antibacterial spectrum (aerobic bacteria); settings: IID618
[13] = test system: Clostridium difficile I-E; assay: MIC, antibacterial spectrum (anaerobic bacteria); settings: Clostridioides difficile, Gram +, 10^6 cells/ml
[14] = test system: Shigella sonnei IID 969; assay: MIC, antibacterial spectrum (aerobic bacteria); settings: IID969, Shigella sonnei IID 969, Gram -, 10^6 cells/ml
Experimental: Minimal inhibitory concentrations (MICs) were determined in accordance with the method recommended by Japan Society of Chemotherapy.

[15] = test system: Propionibacterium acens 11828; assay: MIC, antibacterial spectrum (anaerobic bacteria); settings: Propionibacterium acens 11828, Gram +, 10^6 cells/ml, anaerobic; read-out: MIC
[16] = test system: Alcaligenes faecalis 0114002; assay: MIC, antibacterial spectrum (aerobic bacteria); settings: Alcaligenes faecalis 0114002, Gram -, 10^6 cells/ml
[17] = test system: P. maltophilia GIFU 2491; assay: MIC, antibacterial spectrum (aerobic bacteria); settings: Stenotrophomonas maltophilia, GIFU2491; P. maltophilia GIFU 2491, Gram -, 10^6 cells/ml, aerobic; read-out: MIC
[18] = test system: P. cepacia GIFU 518; assay: MIC, antibacterial spectrum (aerobic bacteria); settings: Burkholderia cepacia, GIFU518; P. cepacia GIFU 518, Gram -, 10^6 cells/ml, aerobic; read-out: MIC
[19] = test system: B. distasonis 8503; assay: MIC, antibacterial spectrum (anaerobic bacteria); settings: Parabacteroides distasonis; B. distasonis 8503, Gram -, 10^6 cells/ml, anaerobic; read-out: MIC
[20] = Serratia marcescens IID 618, Gram -, 10^6 cells/ml, aerobic, read-out: MIC

| SMILES | MIC [1] [µg/mL] | MIC [2] [µg/mL] | MIC [3] [µg/mL] | MIC [4] [µg/mL] | MIC [5] [µg/mL] | MIC [6] [µg/mL] | MIC [7] [µg/mL] | MIC [8] [µg/mL] | MIC [9] [µg/mL] | MIC [10] [µg/mL] | MIC [11] [µg/mL] | MIC [12, 20] [µg/mL] | MIC [13] [µg/mL] | MIC [14] [µg/mL] | MIC [15] [µg/mL] | MIC [16] [µg/mL] | MIC [17] [µg/mL] | MIC [18] [µg/mL] | MIC [19] [µg/mL] | MIC ([12]; Serratia marcescens) [µg/mL] |
| --- | --- | --- | --- | --- | --- | --- | --- | --- | --- | --- | --- | --- | --- | --- | --- | --- | --- | --- | --- | --- |
| O=C(O)c1cn(C2CC2)c2c(F)c(N3CCC(CNCCO)C3)c(F)cc2c1=O (stereo not shown) [Exp. 1, 1-Cyclopropyl-6,8-difluoro-1,4-dihydro-7-[3-(2-hydroxyethylaminomethyl)-1-pyrrolidinyl]-4-oxo-3-quinolinecarboxylic acid] | 0.2 (≈ 0.491 µM) | 3.13 (≈ 7.68 µM) | ≤ 0.05 | 3.13 (≈ 7.68 µM) | 0.05 (≈ 0.123 µM) | 1.56 (≈ 3.83 µM) | 0.05 (≈ 0.123 µM) | 0.78 (≈ 1.91 µM) | 0.2 (≈ 0.491 µM) | 0.2 (≈ 0.491 µM) | 0.78 (≈ 1.91 µM) | 0.39 (≈ 0.957 µM) | 0.78 (≈ 1.91 µM) | 0.05 (≈ 0.123 µM) | 0.78 (≈ 1.91 µM) | 0.78 (≈ 1.91 µM) | – | – | – | – |
| O=C(O)c1cn(C2CC2)c2c(Cl)c(N3CCC(CNCCO)C3)c(F)cc2c1=O (stereo not shown) [Exp. 3, 8-Chloro-1-cyclopropyl-6-fluoro-1,4-dihydro-7-(3-(2-hydroxyethylaminomethyl)-1-pyrrolidinyl]-4-oxo-3-quinolinecarboxylic acid] | 0.05 (≈ 0.118 µM) | 1.56 (≈ 3.68 µM) | 0.025 (≈ 0.059 µM) | – | 0.0125 (≈ 0.0295 µM) | 0.39 (≈ 0.92 µM) | 0.0125 (≈ 0.0295 µM) | 0.39 (≈ 0.92 µM) | 0.1 (≈ 0.236 µM) | 0.1 (≈ 0.236 µM) | 0.39 (≈ 0.92 µM) | 0.2 (≈ 0.472 µM) | 0.2 (≈ 0.472 µM) | 0.05 (≈ 0.118 µM) | 0.78 (≈ 1.84 µM) | 0.39 (≈ 0.92 µM) | 0.2 (≈ 0.472 µM) | 1.56 (≈ 3.68 µM) | 0.78 (≈ 1.84 µM) | – |
| O=C(O)c1cn(C2CC2)c2cc(N3CCC(CNCCO)C3)c(F)cc2c1=O (stereo not drawn) [Exp. 2, l-Cyclopropyl-6-fluoro-l,4-dihydro-7-[3-(2-hydroxyethylaminomethyl)-l-pyrrolidinyl]-4-oxo-3-quinolinecarboxylic acid hydrochloride] | 1.56 | 25 | 0.78 | – | 0.39 | 100 | 0.1 | 25 | 0.78 | 3.13 | 25 | – | 25 | 0.1 | 3.13 | 6.25 | – | – | – | 1.56 |
